Assay results from patent publication US12329158B2, “Large-scale methods of uniformly coating packaging surfaces with a volatile antimicrobial to preserve food freshness” (AGROFRESH INC., priority 2013, dated 2025).
Converted amounts (≈) assume the structure as drawn.

What was measured:
Alternaria alternata = test: Volatile MIC assay (Example 9); assay type: cell-based; settings: 72 h, headspace concentration, 3 days at 23 C, read-out: MIC (mg/L) ALTEAL
In short: (§1)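 Minimum inhibitory concentration of the volatile was read from fungal growth on PDA where the compound reached the inoculum only through the sealed well headspace. Treated filter disks, dried 5 minutes after acetone application, were held on the sealing film in duplicate.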

Monilinia fructicola = test: Volatile MIC assay (Example 9); assay type: cell-based; settings: 72 h, headspace concentration, 3 days at 23 C, read-out: MIC (mg/L) MONIFC
In short: as §1

Glomerella cingulata = test: Volatile MIC assay (Example 9); assay type: cell-based; settings: Colletotrichum gloeosporioides, 72 h, headspace concentration, 3 days at 23 C, read-out: MIC (mg/L) GLOMCI
In short: as §1

Botrytis cinerea [1] = test: Clamshells treated by sublimation; strawberries (Example 5); assay type: in vivo; settings: 5 mg
Method: Five milligrams of Compound A was dissolved in 1 ml of ethanol prior to being uniformly administered to the interior of the clamshell by painting or spraying, and then dried for 5 minutes. After coating the clamshells with Compound A using various application techniques (i.e., sublimation, spraying, or painting), eight ethanol-washed strawberries were placed in the clamshell with stem end facing downwards. Each strawberry fruit was wounded using a T15 screwdriver tip to a uniform depth of eight mm (8 mm). […] Uninoculated strawberries were removed from their commercial package, and directly transferred into treated clamshells without any washing or inoculation steps.
Treated clamshells lids were closed, and then placed at 1° C. for an initial time period of 5 days. Clamshells were then removed from low temperature, and held for a second time period of 6 days at room temperature where the point of inoculation on the strawberry fruits was assessed for indication of disease incidence reported as a percentage (%). Severity of disease incidence was also reported.
This in vivo assay was used to evaluate the ability of Compound A to volatilize from a clamshell in order to control or inhibit fruit infection by pathogenic microorganism, Botrytis cinerea. This experiment was conducted exactly as described in Example 1, with a few exceptions. After equilibrating the clamshell overnight at 21° C., Compound A was administered to the clamshell by sublimation only. Compound A was sublimed onto the surface of the clamshell at a final treatment rate of 5 mg/clamshell. Strawberries were inoculated with Botrytis cinerea, placed within the clamshell for an initial time period of 6 days, and assessed for disease incidence and severity over a second time period of 7 days as described in Example 1.

M. piriformis = test: Volatile MIC assay (Example 11); assay type: cell-based; settings: Mucor piriformis
Botrytis cinerea [2] = test: Volatile release from materials treated by sublimation (Example 14); assay type: cell-based
Method: An in vitro assay is used to evaluate the ability of compound A to volatilize from different materials and control fungal growth. Cardboard box (Category 1), PET plastic (Polyethylene terepthalate—PET) and Polyethylene are used. The materials are cut into equal dimensions (10×19 cm^2) and placed inside a 36-L acrylic desiccator cabinet (Fisher Scientific, cat no. 08-642-23C) in duplicate.
The acetone is allowed to evaporate for 1 minute at 60° C. Compound A is then introduced as a gas into the cabinets by a sublimation device (copper tube heated to 180° C. with fan flow at 0.5 L/min) to achieve a final headspace concentration of 0.3, 0.06 and 0.012 mg/L). The chambers are then incubated at 23° C. for 24 hours, then treated materials are carefully removed and placed inside a clean 10.8 cup SnapWare airtight container (Model #109842) containing a 10-cm diameter Petri dish with PDA and inoculated with 1 μL of […] of B. cinerea. The containers are then tightly sealed for 3 days at 23° C. After 3 days of storage, cultures are evaluated for percent growth relative to control.

Aspergillus brasiliensis = test: Headspace treatment of inoculated grains (Example 28); assay type: in vivo; settings: for Fungal growth on PDA (mm): 10 mg/L headspace
Method: An in vivo assay is used to evaluate the ability of Compound A (1-hydroxy-5-fluoro-1, 3-dihydro-2, 1-benzoxaborole) to control fungal growth of seeds.
Grains consisting of corn, wheat, rice, rye, millet and barley are surface sterilized with 0.825% NaOCl for 1 minute and rinsed thrice with sterile distilled water. The grains are inoculated by soaking them in a 1×10^6 spores/mL suspension of Aspergillus brasiliensis for 1 minute. The excess inoculum is blotted out with a sterile paper towel before plating five seeds in a Petri plate containing 25 mL of PDA. For determination of efficacy, Compound A is diluted in acetone and added to 42.5 mm Whatman #1 filter disks (Cat. No. 1001-042) attached to the inner side of the lid in a dose dependent manner to achieve a final headspace concentration of 0.4, 2, or 10 mg/L. The acetone is permitted to evaporate for five minutes before closing plate and sealing it with parafilm. The plates are incubated at 23° C. for three days.

SMILES: OB1OCc2cc(F)ccc21 [Compound A, 5-fluoro-1,3-dihydro-1-hydroxy-2,1-benzoxaborole]
- MIC (Alternaria alternata): < 0.6 mg/L
- MIC (Monilinia fructicola): < 0.6 mg/L
- MIC (Glomerella cingulata): < 0.6 mg/L
- Gray Mold Incidence (%) (Botrytis cinerea [1]; Inoculated Fruit, Day 0): 0.0%
- Gray Mold Severity (0-4) (Botrytis cinerea [1]; Inoculated Fruit, Day 0): 0.0
- Gray Mold Incidence (%) (Botrytis cinerea [1]; Inoculated Fruit, Day 1): 0.0%
- Gray Mold Severity (0-4) (Botrytis cinerea [1]; Inoculated Fruit, Day 1): 0.0
- Gray Mold Incidence (%) (Botrytis cinerea [1]; Inoculated Fruit, Day 2): 0.0%
- Gray Mold Severity (0-4) (Botrytis cinerea [1]; Inoculated Fruit, Day 2): 0.0
- Gray Mold Incidence (%) (Botrytis cinerea [1]; Inoculated Fruit, Day 3): 0.0%
- Gray Mold Severity (0-4) (Botrytis cinerea [1]; Inoculated Fruit, Day 3): 0.0
- Gray Mold Incidence (%) (Botrytis cinerea [1]; Inoculated Fruit, Day 4): 0.0%
- Gray Mold Severity (0-4) (Botrytis cinerea [1]; Inoculated Fruit, Day 4): 0.0
- Gray Mold Incidence (%) (Botrytis cinerea [1]; Inoculated Fruit, Day 5): 16.7%
- Gray Mold Severity (0-4) (Botrytis cinerea [1]; Inoculated Fruit, Day 5): 0.1
- Gray Mold Incidence (%) (Botrytis cinerea [1]; Inoculated Fruit, Day 6): 18.8%
- Gray Mold Severity (0-4) (Botrytis cinerea [1]; Inoculated Fruit, Day 6): 0.2
- Gray Mold Incidence (%) (Botrytis cinerea [1]; Inoculated Fruit, Day 7): 16.7%
- Gray Mold Severity (0-4) (Botrytis cinerea [1]; Inoculated Fruit, Day 7): 0.3
- Gray Mold Incidence (%) (Botrytis cinerea [1]; Uninoculated Fruit, Day 0): 0.0%
- Gray Mold Severity (0-4) (Botrytis cinerea [1]; Uninoculated Fruit, Day 0): 0.0
- Gray Mold Incidence (%) (Botrytis cinerea [1]; Uninoculated Fruit, Day 1): 2.6%
- Gray Mold Severity (0-4) (Botrytis cinerea [1]; Uninoculated Fruit, Day 1): 0.4
- Gray Mold Incidence (%) (Botrytis cinerea [1]; Uninoculated Fruit, Day 2): 0.1%
- Gray Mold Severity (0-4) (Botrytis cinerea [1]; Uninoculated Fruit, Day 2): 1.0
- Gray Mold Incidence (%) (Botrytis cinerea [1]; Uninoculated Fruit, Day 3): 26.3%
- Gray Mold Severity (0-4) (Botrytis cinerea [1]; Uninoculated Fruit, Day 3): 1.0
- Gray Mold Incidence (%) (Botrytis cinerea [1]; Uninoculated Fruit, Day 4): 34.1%
- Gray Mold Severity (0-4) (Botrytis cinerea [1]; Uninoculated Fruit, Day 4): 1.0
- Gray Mold Incidence (%) (Botrytis cinerea [1]; Uninoculated Fruit, Day 5): 40.0%
- Gray Mold Severity (0-4) (Botrytis cinerea [1]; Uninoculated Fruit, Day 5): 1.3
- Gray Mold Incidence (%) (Botrytis cinerea [1]; Uninoculated Fruit, Day 6): 43.3%
- Gray Mold Severity (0-4) (Botrytis cinerea [1]; Uninoculated Fruit, Day 6): 1.3
- Gray Mold Incidence (%) (Botrytis cinerea [1]; Uninoculated Fruit, Day 7): 54.1%
- Gray Mold Severity (0-4) (Botrytis cinerea [1]; Uninoculated Fruit, Day 7): 1.6
- MIC (M. piriformis): 1.1 µg/mL (≈ 7.24 µM)
- Incidence (%) (Botrytis cinerea [2]; Rate 0.012 mg/L, Cardboard): 100.0%
- Incidence (%) (Botrytis cinerea [2]; Rate 0.012 mg/L, Clamshell): 100.0%
- Incidence (%) (Botrytis cinerea [2]; Rate 0.012 mg/L, Polyethylene): 99.0%
- Incidence (%) (Botrytis cinerea [2]; Rate 0.06 mg/L, Cardboard): 91.7%
- Incidence (%) (Botrytis cinerea [2]; Rate 0.06 mg/L, Clamshell): 100.0%
- Incidence (%) (Botrytis cinerea [2]; Rate 0.06 mg/L, Polyethylene): 86.7%
- Incidence (%) (Botrytis cinerea [2]; Rate 0.3 mg/L, Cardboard): 9.3%
- Incidence (%) (Botrytis cinerea [2]; Rate 0.3 mg/L, Clamshell): 4.1%
- Incidence (%) (Botrytis cinerea [2]; Rate 0.3 mg/L, Polyethylene): 4.9%
- Fungal growth on PDA (mm) (Aspergillus brasiliensis; Barley): 0 mm
- Fungal growth on PDA (mm) (Aspergillus brasiliensis; Corn Dry): 0 mm
- Fungal growth on PDA (mm) (Aspergillus brasiliensis; Millet): 0 mm
- Fungal growth on PDA (mm) (Aspergillus brasiliensis; Rice): 0 mm
- Fungal growth on PDA (mm) (Aspergillus brasiliensis; Rye): 0 mm
- Fungal growth on PDA (mm) (Aspergillus brasiliensis; Wheat): 0 mm
- control of Aspergillus brasiliensis (Aspergillus brasiliensis; grains, headspace treatment): 100%
